Toxic doses and inconclusive results are not listed.

Results on 17 compounds are retold here after PubChem BioAssay AID248 (DTP/NCI, 2004).

For the assay, the system named is L1210 leukemia ip in BDF1 mice, survival T/C. The experiment in a line: NCI In Vivo Anticancer Drug Screen. Data for tumor model L1210 Leukemia (intraperitoneal) in B6D2F1 (BDF1) mice. The conditions noted are these: endpoint: mean survival time, higher = longer survival. The method in brief: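 In this screen, tumor-bearing mice given compound are compared to those given vehicle, and their survival values are reported as a treated-to-control quotient.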

[1] abbreviates: dose: 100.0 mg/kg/injection, schedule: Q01DX001 (ip), vehicle: saline.
Where [2] appears, read: dose: 200.0 mg/kg/injection, schedule: Q01DX001 (ip), vehicle: saline.
Where [3] appears, read: dose: 400.0 mg/kg/injection, schedule: Q01DX001 (ip), vehicle: saline.
Where [4] appears, read: dose: 100.0 mg/kg/injection, schedule: Q04DX002 (ip), vehicle: Klucel (hydroxypropylcellulose) (HPC).
Where [5] appears, read: dose: 200.0 mg/kg/injection, schedule: Q04DX002 (ip), vehicle: Klucel (hydroxypropylcellulose) (HPC).
Where [6] appears, read: dose: 400.0 mg/kg/injection, schedule: Q04DX002 (ip), vehicle: Klucel (hydroxypropylcellulose) (HPC).
[7] abbreviates: dose: 100.0 mg/kg/injection, schedule: Q04DX003 (ip), vehicle: saline.
Setting [8] is: dose: 100.0 mg/kg/injection, schedule: Q01DX001 (ip), vehicle: carboxymethylcellulose (CMC).
The mark [9] stands for this setting: dose: 200.0 mg/kg/injection, schedule: Q01DX001 (ip), vehicle: carboxymethylcellulose (CMC).
Where [10] appears, read: dose: 400.0 mg/kg/injection, schedule: Q01DX001 (ip), vehicle: carboxymethylcellulose (CMC).
[11] abbreviates: dose: 100.0 mg/kg/injection, schedule: Q01DX009 (ip), vehicle: Klucel (hydroxypropylcellulose) (HPC).
[12] abbreviates: dose: 200.0 mg/kg/injection, schedule: Q01DX009 (ip), vehicle: Klucel (hydroxypropylcellulose) (HPC).

With `N#CCC1=CC(=O)C(=O)c2ccccc21`, the T/C was 102 % of control under setting [1], 102 % of control under setting [2] and 100 % of control under setting [3].
For the compound `Cc1ccc(S(=O)(=O)Nc2ccc3ncccc3c2)cc1`, the T/C was 103 % of control under setting [1], 102 % of control under setting [2] and 96 % of control under setting [3].
For the compound `NC(=O)CC(NC(=O)C(F)(F)F)C(=O)O` (stereo unspecified), the T/C is, setting by setting: (dose: 100.0 mg/kg/injection, schedule: Q04DX003 (ip), vehicle: carboxymethylcellulose (CMC)) 98 % of control; (dose: 200.0 mg/kg/injection, schedule: Q04DX003 (ip), vehicle: carboxymethylcellulose (CMC)) 98 % of control; (dose: 400.0 mg/kg/injection, schedule: Q04DX003 (ip), vehicle: carboxymethylcellulose (CMC)) 88 % of control.
Consider `O=c1c2[nH]cnc2ncn1Cc1ccccc1`, for which the T/C (dose: 100.0 mg/kg/injection, schedule: Q01DX001 (ip), vehicle: Klucel (hydroxypropylcellulose) (HPC)) is 102 % of control; the T/C (dose: 200.0 mg/kg/injection, schedule: Q01DX001 (ip), vehicle: Klucel (hydroxypropylcellulose) (HPC)) was 98 % of control; the T/C (dose: 400.0 mg/kg/injection, schedule: Q01DX001 (ip), vehicle: Klucel (hydroxypropylcellulose) (HPC)) was 109 % of control.
Consider `F[Si](C1CCCCC1)(C1CCCCC1)C1CCCCC1`, for which the T/C (dose: 100.0 mg/kg/injection, schedule: Q01DX009 (ip), vehicle: saline with Tween-80) is 92 % of control; the T/C (dose: 200.0 mg/kg/injection, schedule: Q01DX009 (ip), vehicle: saline with Tween-80) was 91 % of control; the T/C (dose: 400.0 mg/kg/injection, schedule: Q01DX009 (ip), vehicle: saline with Tween-80) is 89 % of control.
As for `CCCCCCC1C/C(=C/N(C)C)C(=O)O1` (stereo unspecified), the T/C under setting [4] is 90 % of control, the T/C under setting [5] was 90 % of control and the T/C under setting [6] was 93 % of control.
`CCCCCOC(CN)C(Cl)(Cl)Cl` (stereo unspecified): the T/C (dose: 25.0 mg/kg/injection, schedule: Q01DX009 (ip), vehicle: saline) was 93 % of control; the T/C (dose: 50.0 mg/kg/injection, schedule: Q01DX009 (ip), vehicle: saline) was 97 % of control; the T/C under setting [7] is 91 % of control.
For the compound `N#[N+]c1c([O-])[nH]c(=S)[nH]c1=O`, the T/C was 92 % of control (dose: 100.0 mg/kg/injection, schedule: Q01DX009 (ip), vehicle: acetone); 100 % of control (dose: 100.0 mg/kg/injection, schedule: Q04DX003 (ip), vehicle: acetone); 96 % of control (dose: 200.0 mg/kg/injection, schedule: Q01DX009 (ip), vehicle: acetone); 103 % of control (dose: 200.0 mg/kg/injection, schedule: Q04DX003 (ip), vehicle: acetone); 88 % of control (dose: 400.0 mg/kg/injection, schedule: Q01DX009 (ip), vehicle: acetone); 94 % of control (dose: 400.0 mg/kg/injection, schedule: Q04DX003 (ip), vehicle: acetone).
On to `c1ccc(C2=NN(c3ccccc3)CC2)cc1`, for which the T/C was 106 % of control under setting [4], 98 % of control under setting [5] and 106 % of control under setting [6].
Consider `Cc1cc2c(C(C)C)c(O)c(O)c(C=O)c2c(O)c1-c1c(C)cc2c(C(C)C)c(O)c(O)c(C=O)c2c1O`, for which the T/C is 105 % of control (dose: 0.25 mg/kg/injection, schedule: Q01DX009 (ip), vehicle: saline); 110 % of control (dose: 0.5 mg/kg/injection, schedule: Q01DX009 (ip), vehicle: saline); 106 % of control (dose: 1.0 mg/kg/injection, schedule: Q01DX009 (ip), vehicle: saline); 106 % of control (dose: 2.0 mg/kg/injection, schedule: Q01DX009 (ip), vehicle: saline); 108 % of control (dose: 4.0 mg/kg/injection, schedule: Q01DX009 (ip), vehicle: saline); 101 % of control (dose: 8.0 mg/kg/injection, schedule: Q01DX009 (ip), vehicle: saline).
Turning to `O=C1OC(=O)C2C1C1C=CC2C1(c1ccccc1)c1ccccc1` (stereo unspecified), the T/C reads like this: under setting [8], 96 % of control; under setting [9], 96 % of control; under setting [10], 96 % of control.
For the compound `CC(Cc1ccccc1)NC(=O)/C=C/C(=O)O` (stereo unspecified), the T/C under setting [11] is 96 % of control; the T/C (dose: 100.0 mg/kg/injection, schedule: Q04DX003 (ip), vehicle: Klucel (hydroxypropylcellulose) (HPC)) was 103 % of control; the T/C under setting [12] was 106 % of control; the T/C (dose: 200.0 mg/kg/injection, schedule: Q04DX003 (ip), vehicle: Klucel (hydroxypropylcellulose) (HPC)) was 90 % of control; the T/C (dose: 400.0 mg/kg/injection, schedule: Q01DX009 (ip), vehicle: Klucel (hydroxypropylcellulose) (HPC)) was 95 % of control; the T/C (dose: 400.0 mg/kg/injection, schedule: Q04DX003 (ip), vehicle: Klucel (hydroxypropylcellulose) (HPC)) was 101 % of control.
Consider `OCC1OC(n2cnc3c(SCc4ccccn4)ncnc32)C(O)C1O` (stereo unspecified), for which the T/C is 101 % of control under setting [1], 113 % of control under setting [2] and 115 % of control under setting [3].
For `CS(=O)(=O)CCN(N=O)C(=N)N[N+](=O)[O-]`, the T/C runs as follows: (dose: 5.1 mg/kg/injection, schedule: Q01DX Z (ip), vehicle: carboxymethylcellulose (CMC)) 116 % of control; (dose: 7.7 mg/kg/injection, schedule: Q01DX Z (ip), vehicle: carboxymethylcellulose (CMC)) 116 % of control; (dose: 8.8 mg/kg/injection, schedule: Q01DX Z (ip), vehicle: methylcellulose (MC)) 121 % of control; (dose: 11.7 mg/kg/injection, schedule: Q01DX Z (ip), vehicle: carboxymethylcellulose (CMC)) 116 % of control; (dose: 12.0 mg/kg/injection, schedule: Q01DX Z (sc), vehicle: carboxymethylcellulose (CMC)) 101 % of control; (dose: 17.7 mg/kg/injection, schedule: Q01DX Z (ip), vehicle: carboxymethylcellulose (CMC)) 123 % of control. Besides, the T/C was 117 % of control (dose: 20.0 mg/kg/injection, schedule: Q01DX Z (ip), vehicle: methylcellulose (MC)); 117 % of control (dose: 24.0 mg/kg/injection, schedule: Q01DX Z (sc), vehicle: carboxymethylcellulose (CMC)); 155 % of control (dose: 40.0 mg/kg/injection, schedule: Q01DX Z (ip), vehicle: carboxymethylcellulose (CMC)); 106 % of control (dose: 45.0 mg/kg/injection, schedule: Q01DX Z (oral), vehicle: carboxymethylcellulose (CMC)); 101 % of control (dose: 48.0 mg/kg/injection, schedule: Q01DX Z (sc), vehicle: carboxymethylcellulose (CMC)); 150 % of control (dose: 60.0 mg/kg/injection, schedule: Q01DX Z (ip), vehicle: carboxymethylcellulose (CMC)). In addition, the T/C is, setting by setting: (dose: 60.0 mg/kg/injection, schedule: Q01DX Z (ip), vehicle: methylcellulose (MC)) 168 % of control; (dose: 90.0 mg/kg/injection, schedule: Q01DX Z (ip), vehicle: methylcellulose (MC)) 122 % of control; (dose: 90.0 mg/kg/injection, schedule: Q01DX Z (oral), vehicle: carboxymethylcellulose (CMC)) 105 % of control; (dose: 96.0 mg/kg/injection, schedule: Q01DX Z (sc), vehicle: carboxymethylcellulose (CMC)) 112 % of control; (dose: 135.0 mg/kg/injection, schedule: Q01DX Z (ip), vehicle: methylcellulose (MC)) 119 % of control; (dose: 180.0 mg/kg/injection, schedule: Q01DX Z (oral), vehicle: carboxymethylcellulose (CMC)) 118 % of control. For the same compound, the T/C (dose: 360.0 mg/kg/injection, schedule: Q01DX Z (oral), vehicle: carboxymethylcellulose (CMC)) was 114 % of control.
For `O=C1c2ccccc2CC1(c1ccccc1)c1ccccc1`, the T/C was 91 % of control under setting [8], 94 % of control under setting [9] and 94 % of control under setting [10].
Regarding `NC(=O)CC1(O)CCCCC1`, the T/C under setting [7] is 114 % of control; the T/C (dose: 200.0 mg/kg/injection, schedule: Q04DX003 (ip), vehicle: saline) is 97 % of control; the T/C (dose: 400.0 mg/kg/injection, schedule: Q04DX003 (ip), vehicle: saline) is 97 % of control.
Regarding `CC(=O)Nc1cccc(OCCCOc2cccc(C(=N)N)c2)c1`, the T/C is 103 % of control (dose: 50.0 mg/kg/injection, schedule: Q01DX009 (ip), vehicle: Klucel (hydroxypropylcellulose) (HPC)); 100 % of control under setting [11]; 94 % of control under setting [12].
